The values below come from PubChem BioAssay AID1919013 (Molecular Pharmacology Branch, DTP, NCI, 2023).

The subject of the assay is LG0703-F498-PDC complex spheroid growth. Kind of assay: Anticancer human tumor LG0703-F498-PDC patient-derived lung adenocarcinoma cell line growth inhibition [AhR]. The conditions noted are these: for viability, T/C: stronger effect = lower value. An outline of the steps: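 Spheroids combined tumor cells with HUVEC endothelial cells and human MSCs as stroma. AhR antagonists were paired with standard or investigational drugs, each dosed in half-log steps down from near clinical Cmax, or from 10 microM where Cmax was unknown.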

Where [1] appears, read: curve of first compound, second compound 0.1 µM.
[2] abbreviates: curve of first compound, second compound 0.316 µM.
Where [3] appears, read: curve of first compound, second compound 1 µM.
Where [4] appears, read: curve of first compound, second compound 3.16 µM.
Setting [5] is: curve of first compound, second compound 10 µM.
The mark [6] stands for this setting: second compound 0.1 µM, first compound 0.0316 µM.
Setting [7] is: second compound 0.1 µM, first compound 0.1 µM.
Setting [8] is: second compound 0.316 µM, first compound 0.0316 µM.
[9] abbreviates: second compound 0.316 µM, first compound 0.1 µM.
Setting [10] is: second compound 1 µM, first compound 0.0316 µM.
Where [11] appears, read: second compound 1 µM, first compound 0.1 µM.
Setting [12] is: second compound 3.16 µM, first compound 0.0316 µM.
Setting [13] is: second compound 3.16 µM, first compound 0.1 µM.
The mark [14] stands for this setting: second compound 10 µM, first compound 0.0316 µM.
[15] abbreviates: second compound 10 µM, first compound 0.1 µM.

“And” between values parts separate entries of the source, which are not always exact repeats. Equal entries are not always repeated.

Broadly, the IC50 is the concentration at which inhibition is half-maximal. Broadly, the viability, T/C is the ratio of treated to control.
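Further: luminescence taken as a proxy for viable cell amount.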
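Wherever viability, T/C is given: percent of DMSO vehicle control where 100% means growth equal to vehicle.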

Consider `CC[C@@]1(O)C(=O)OCc2c1cc1n(c2=O)Cc2cc3c(CN(C)C)c(O)ccc3nc2-1` + Cc1cncc(-c2nc(NCCc3c[nH]c4ccccc34)c3ncn(C(C)C)c3n2)c1, for which the IC50 under setting [1] was more than 100 nM; the half-maximal inhibitory concentration (IC50) under setting [2] was more than 100 nM; the IC50 under setting [3] was more than 100 nM; the concentration for half-maximal inhibition (IC50) under setting [4] was found to be 29.8 nM; the IC50 under setting [5] is less than 0.316 nM. The viability, T/C was 96.8% (second compound 0.1 µM, first compound 0.000316 µM); 99.7% (second compound 0.1 µM, first compound 0.001 µM); 100% (second compound 0.1 µM, first compound 0.00316 µM); 89.2% (second compound 0.1 µM, first compound 0.01 µM); 78.6% under setting [6]; 63.7% under setting [7]. The viability, T/C runs as follows: (second compound 0.316 µM, first compound 0.000316 µM) 93%; (second compound 0.316 µM, first compound 0.001 µM) 105%; (second compound 0.316 µM, first compound 0.00316 µM) 102%; (second compound 0.316 µM, first compound 0.01 µM) 87.5%; under setting [8], 63.9%; under setting [9], 55.4%. In addition, the viability, T/C reads like this: (second compound 1 µM, first compound 0.000316 µM) 97.5%; (second compound 1 µM, first compound 0.001 µM) 101%; (second compound 1 µM, first compound 0.00316 µM) 101%; (second compound 1 µM, first compound 0.01 µM) 90.6%; under setting [10], 73%; under setting [11], 50.2%. Besides, the viability, T/C by setting is: (second compound 3.16 µM, first compound 0.000316 µM) 56.9%; (second compound 3.16 µM, first compound 0.001 µM) 67.9%; (second compound 3.16 µM, first compound 0.00316 µM) 56.6%; (second compound 3.16 µM, first compound 0.01 µM) 57.6%; under setting [12], 48%; under setting [13], 38.3%. In addition, the viability, T/C reads like this: (second compound 10 µM, first compound 0.000316 µM) 1.34%; (second compound 10 µM, first compound 0.001 µM) 2.04%; (second compound 10 µM, first compound 0.00316 µM) 1.13%; (second compound 10 µM, first compound 0.01 µM) 1.73%; under setting [14], 1.21%; under setting [15], 2.28%.

Consider `NS(=O)(=O)OCC1CC(n2ccc3c(NC4CCc5ccccc54)ncnc32)CC1O` (centres undefined), for which the viability, T/C (compound 0.0316 µM) is 94.3% and 100% and 101%; the viability, T/C (compound 0.1 µM) was 105% and 96.8% and 99.1%; the viability, T/C (compound 0.316 µM) is 107% and 102% and 97.8%; the viability, T/C (compound 1 µM) was 89.2% and 103% and 86.7%; the viability, T/C (compound 3.16 µM) is 65.2% and 76.8% and 62.9%; the viability, T/C (compound 10 µM) was 35.8% and 47% and 34.9%. Moreover, the half-inhibitory concentration (IC50) (curve of compound) is 5660 nM and 8900 nM and 5360 nM.

In the case of `COc1cc(Nc2ncc3c(n2)-c2ccc(Cl)cc2C(c2c(F)cccc2OC)=NC3)ccc1C(=O)O` + Cc1ccccc1N=Nc1ccc(NC(=O)c2ccnn2C)c(C)c1, the IC50 was more than 10000 nM under setting [1]; 5360 nM under setting [2]; 6050 nM under setting [3]; 4050 nM under setting [4]; 5020 nM under setting [5]. In addition, the viability, T/C under setting [6] is 93.2%; the viability, T/C under setting [7] is 79.5%; the viability, T/C (second compound 0.1 µM, first compound 0.316 µM) was 60.5%; the viability, T/C (second compound 0.1 µM, first compound 1 µM) is 68.5%; the viability, T/C (second compound 0.1 µM, first compound 3.16 µM) was 67.9%; the viability, T/C (second compound 0.1 µM, first compound 10 µM) was 45.3%. Besides, the viability, T/C is, setting by setting: under setting [8], 84.4%; under setting [9], 82.2%; (second compound 0.316 µM, first compound 0.316 µM) 70.9%; (second compound 0.316 µM, first compound 1 µM) 74%; (second compound 0.316 µM, first compound 3.16 µM) 57.7%; (second compound 0.316 µM, first compound 10 µM) 39.7%. Further, the viability, T/C reads like this: under setting [10], 86.6%; under setting [11], 82.6%; (second compound 1 µM, first compound 0.316 µM) 65.4%; (second compound 1 µM, first compound 1 µM) 65.3%; (second compound 1 µM, first compound 3.16 µM) 54.2%; (second compound 1 µM, first compound 10 µM) 46%. Also, the viability, T/C under setting [12] is 73.9%; the viability, T/C under setting [13] is 71.8%; the viability, T/C (second compound 3.16 µM, first compound 0.316 µM) is 61.3%; the viability, T/C (second compound 3.16 µM, first compound 1 µM) was 62.5%; the viability, T/C (second compound 3.16 µM, first compound 3.16 µM) was 53.8%; the viability, T/C (second compound 3.16 µM, first compound 10 µM) is 40.8%. Also, the viability, T/C is 70.9% under setting [14]; 61.5% under setting [15]; 62.5% (second compound 10 µM, first compound 0.316 µM); 70.4% (second compound 10 µM, first compound 1 µM); 55.7% (second compound 10 µM, first compound 3.16 µM); 38% (second compound 10 µM, first compound 10 µM).

With `CC(C)CC(NC(=O)C(Cc1ccccc1)NC(=O)c1cnccn1)B(O)O` (centres undefined), the viability, T/C (compound 0.000949 µM) was 99.7% and 97.7% and 92.7%; the viability, T/C (compound 0.003 µM) is 69.5% and 94.8% and 48.4%; the viability, T/C (compound 0.00949 µM) is 6.8% and 9.74% and 2.07%; the viability, T/C (compound 0.03 µM) is 0.44% and 0.8% and 0.23%; the viability, T/C (compound 0.0949 µM) is 0.15% and 0.2% and 0.16%; the viability, T/C (compound 0.3 µM) was 0.19% and 0.35% and 0.18%. The half-maximal inhibitory concentration (IC50) (curve of compound) was 4.29 nM and 5.5 nM and 2.88 nM.

For the molecule `Nc1ncn(C2CC(O)C(CO)S2)c(=O)n1` (centres undefined) + CC(CO)NC(=O)c1cc(-c2ccc(Cl)cc2)nn(-c2cnn(C)c2)c1=O, the half-maximal inhibitory concentration (IC50) under setting [1] is more than 300 nM; the IC50 under setting [2] is more than 300 nM; the IC50 under setting [3] was more than 300 nM; the IC50 under setting [4] was more than 300 nM; the half-maximal inhibitory concentration (IC50) under setting [5] was more than 300 nM. For the same molecule, the viability, T/C (second compound 0.1 µM, first compound 0.000949 µM) was 89.3%; the viability, T/C (second compound 0.1 µM, first compound 0.003 µM) is 96.6%; the viability, T/C (second compound 0.1 µM, first compound 0.00949 µM) was 95.6%; the viability, T/C (second compound 0.1 µM, first compound 0.03 µM) is 102%; the viability, T/C (second compound 0.1 µM, first compound 0.0949 µM) is 92.8%; the viability, T/C (second compound 0.1 µM, first compound 0.3 µM) was 91.8%. The viability, T/C is 108% (second compound 0.316 µM, first compound 0.000949 µM); 93.9% (second compound 0.316 µM, first compound 0.003 µM); 96.2% (second compound 0.316 µM, first compound 0.00949 µM); 103% (second compound 0.316 µM, first compound 0.03 µM); 97.1% (second compound 0.316 µM, first compound 0.0949 µM); 97.8% (second compound 0.316 µM, first compound 0.3 µM). In addition, the viability, T/C is 82.4% (second compound 1 µM, first compound 0.000949 µM); 92% (second compound 1 µM, first compound 0.003 µM); 90.2% (second compound 1 µM, first compound 0.00949 µM); 76.9% (second compound 1 µM, first compound 0.03 µM); 84.8% (second compound 1 µM, first compound 0.0949 µM); 97.7% (second compound 1 µM, first compound 0.3 µM). The viability, T/C runs as follows: (second compound 3.16 µM, first compound 0.000949 µM) 80.5%; (second compound 3.16 µM, first compound 0.003 µM) 90.9%; (second compound 3.16 µM, first compound 0.00949 µM) 78.3%; (second compound 3.16 µM, first compound 0.03 µM) 94.8%; (second compound 3.16 µM, first compound 0.0949 µM) 96.1%; (second compound 3.16 µM, first compound 0.3 µM) 89.5%. Moreover, the viability, T/C is, setting by setting: (second compound 10 µM, first compound 0.000949 µM) 86.9%; (second compound 10 µM, first compound 0.003 µM) 86.7%; (second compound 10 µM, first compound 0.00949 µM) 84.9%; (second compound 10 µM, first compound 0.03 µM) 86.7%; (second compound 10 µM, first compound 0.0949 µM) 81.9%; (second compound 10 µM, first compound 0.3 µM) 92.2%.
